Data taken from PubChem BioAssay (NCI).
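These data come from cells grown in 96-well plates and exposed to compound for 48 hours at five concentrations. TGI: total growth inhibition.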 *1 amine or outer side, *2 acyl side, *3 side chain or, on linkers, in order; H or OH if unused. Where a SMILES comes first, the peptide text is derived from it. Bridges are numbered along the chain shown (N, C = ends). [ ]: non-standard residue; d: D form. The star is where a group is joined. X59 = COc1c(N[*:1])cccc1C(=O)O[C@H](C(=O)[C@H](C)C(=O)[*:2])C(C)C; X58 = CC(C)C[C@H](C(=O)[*:2])C(C)C(=O)C1CCCN1[*:1]; NMeY = CN[C@@H](Cc1ccc(O)cc1)C(=O)O; Boc = CC(C)(C)OC(=O)*; Lac = C[C@H](O)C(=O)O; Bn = c1ccc(C*)cc1

Experiments:
Assay in all cases: growth of human tumour cells (NCI), 48 h
A549 NSCLC = tested on: A549 NSCLC
CCRF-CEM leukemia = tested on: CCRF-CEM leukemia
IGROV1 ovarian = tested on: IGROV1 ovarian
LOX IMVI melanoma = tested on: LOX IMVI melanoma
MDA-N = tested on: MDA-N
NCI-H226 lung = tested on: NCI-H226 lung
NCI-H522 lung = tested on: NCI-H522 lung
OVCAR-5 ovarian = tested on: OVCAR-5 ovarian
SK-MEL-28 melanoma = tested on: SK-MEL-28 melanoma
SNB-75 CNS = tested on: SNB-75 CNS
SR leukemia = tested on: SR leukemia
HL-60(TB) leukemia = tested on: HL-60(TB) leukemia

| SMILES | TGI (A549 NSCLC) [µM] | TGI (CCRF-CEM leukemia) [µM] | TGI (IGROV1 ovarian) [µM] | TGI (LOX IMVI melanoma) [µM] | TGI (MDA-N) [µM] | TGI (NCI-H226 lung) [µM] | TGI (NCI-H522 lung) [µM] | TGI (OVCAR-5 ovarian) [µM] | TGI (SK-MEL-28 melanoma) [µM] | TGI (SNB-75 CNS) [µM] | TGI (SR leukemia) [µM] | TGI (HL-60(TB) leukemia) [µM] |
| --- | --- | --- | --- | --- | --- | --- | --- | --- | --- | --- | --- | --- |
| Nc1ncnc2c1ncn2[C@@H]1C[C@H](NO)[C@@H](O)[C@H]1O | > 100 | > 100 | > 100 | > 100 | > 100 | > 100 | > 100 | > 100 | > 100 | > 100 | > 100 | – |
| Cc1ccc(S(=O)(=O)NC(=O)NCC(N)=O)cc1 | > 100 | > 100 | > 100 | > 100 | > 100 | – | > 100 | > 100 | > 100 | > 100 | – | > 100 |
| O=c1[nH]c2cc3[nH]c(=O)c(=O)[nH]c3cc2[nH]c1=O | > 100 | > 100 | > 100 | > 100 | – | > 100 | > 100 | > 100 | > 100 | > 100 | – | > 100 |
| C/C(=C(/C)c1cc[n+](C)cc1)c1cc[n+](C)cc1 | > 75 | > 75 | > 75 | > 75 | – | – | > 75 | > 75 | > 75 | > 75 | – | > 75 |
| Cn1nc(S(N)(=O)=O)s/c1=N/S(=O)(=O)c1ccc(N)cc1 | > 100 | – | – | – | – | > 100 | – | > 100 | > 100 | > 100 | – | – |
| CC(C)(C)OC(=O)NC(Cc1ccc(OCc2ccccc2)cn1)C(=O)O (stereo not given) | > 100 | – | > 100 | > 100 | > 100 | > 100 | > 100 | > 100 | > 100 | – | > 100 | > 100 |
| Brc1ccc(N=Nc2ccc3ccccc3n2)cc1 | > 100 | > 100 | 65.5 | – | > 100 | 66.9 | 21.4 | > 100 | – | 40.6 | – | > 100 |
| CN1C(=O)C(C#N)C2C[C@@]1(C)Oc1ccccc12 (stereo not given in full) | > 100 | > 100 | > 100 | > 100 | > 100 | > 100 | > 100 | > 100 | > 100 | > 100 | – | > 100 |
| C/C(CC(=O)Nc1ccccc1)=N\NC(N)=S | > 100 | > 100 | > 100 | > 100 | – | > 100 | > 100 | > 100 | > 100 | > 100 | – | > 100 |
| O=C(/C=N/O)Nc1ccc(Cl)c(I)c1 | 94 | 94.8 | 39.2 | 31.4 | – | 17.8 | 34.6 | 62.2 | 72.6 | – | 61.2 | 54.1 |
| OCCSCC/C(=N\N=C(/CCSCCO)c1ccccc1)c1ccccc1 | > 100 | > 100 | > 100 | > 100 | – | > 100 | – | > 100 | > 100 | – | – | > 100 |
| COC(=O)C(CC(C)C)NC(=O)CNC(=O)C(Cc1ccc(OCc2ccccc2)cc1)NC(=O)C(COCc1ccccc1)NC(=O)OC(C)(C)C (stereo not given) (Boc-S(Bn)Y(Bn)GL-OMe; configuration not given here) | > 100 | – | > 100 | > 100 | > 100 | > 100 | > 100 | > 100 | > 100 | > 100 | > 100 | 39.7 |
| COc1ccc(C[C@H]2C(=O)O[C@H](C)[C@H](NC(=O)[C@@H](CC(C)C)C(C)C(=O)C3CCCN3C(=O)[C@H](C)O)C(=O)Nc3cccc(c3OC)C(=O)O[C@@H](C(C)C)C(=O)[C@H](C)C(=O)N[C@@H](CC(C)C)C(=O)N3CCC[C@H]3C(=O)N2C)cc1 (stereo not given in full) (H-[Lac][X58]T[X59]LP[NMeY](Me); ester 3-C) | > 12.5 | – | > 12.5 | > 12.5 | > 12.5 | > 12.5 | > 12.5 | > 12.5 | > 12.5 | > 12.5 | > 12.5 | – |
| CC(C)(C)CN1[C@@H]2CCCC[C@H]2N(CC(C)(C)C)P1(=O)C(O)/C=C/c1ccccc1 (stereo not given in full) | > 100 | > 100 | > 100 | 37.3 | > 100 | 91.6 | > 100 | > 100 | > 100 | > 100 | – | 81.1 |
| O=S1(=O)c2ccccc2-c2nccc3ccnc1c23 | – | > 100 | > 100 | > 100 | > 100 | > 100 | 29.9 | > 100 | > 100 | 83.7 | – | > 100 |
| CCOC(=O)CNC(=O)CNC(=O)CNC(=O)CNNc1c(OCc2ccccc2)c(=O)c1=O | > 100 | > 100 | > 100 | – | > 100 | > 100 | > 100 | > 100 | > 100 | > 100 | – | – |
| COC(=O)/C(C#N)=C(/NCc1ccccc1)Nc1ccccc1 | > 100 | – | > 100 | > 100 | > 100 | > 100 | > 100 | > 100 | > 100 | > 100 | > 100 | > 100 |
| CC(=O)c1c2c(cc3c1CC1(C3)Cc3cc4c(c(C(C)=O)c3C1)CCCC4)CCCC2 | > 100 | 44 | > 100 | > 100 | > 100 | > 100 | > 100 | > 100 | – | – | 53.2 | 40 |
| CC(C)=CC[C@H]1C[C@@]2(CC=C(C)C)C(=O)/C(=C(/O)c3ccccc3)C(=O)[C@](CC=C(C)C)(C2=O)C1(C)C | 23.7 | – | 20.3 | 17 | 20.1 | 36.2 | 32.5 | 19.5 | 30.3 | 33.4 | > 100 | – |
| CC[C@H]1C=CCC[C@@]2(C[C@@H]3CC[C@H]4[C@@H](C(=O)OCCCCCCCCCCCCCCCC(=O)N(CCCNC(C)=O)C[C@H](CCNC(C)=O)OC(C)=O)[C@@]5(CCC[C@@H](C)O5)NC(=[N+]34)N2)O1 | 3.42 | – | 2.66 | 3.16 | 3.05 | 2.94 | 2.63 | 2.96 | 2.63 | – | 3.35 | 2.91 |
